Test results published in patent US9932479B2, “Dyes and compositions, and processes for using same in analysis of protein aggregation and other applications” (Enzo Biochem, Inc., priority 2009, dated 2018).

Legend:
[1] = test system: goat-anti-mouse IgG aggregate; assay: Fluorescence enhancement (aggregate/native IgG) in the presence of excipients; format: binding; conditions: for Fluorescence enhancement (aggregate/native IgG): 2.8 μM IgG, 0.625 μM dye
Protocol: IgG aggregate was prepared by adjusting 5.83 mg/ml of purified goat-anti-mouse IgG (H&L, Pel Freez, Rogers, Ark.) to pH 2.7 using HCl and incubating at 22° C. for 24 hours. The assay was performed using 2.8 μM IgG, either native or aggregated, and a dye concentration of 0.625 μM. The protein and dye were mixed together for 15 minutes at 22° C., then this was further incubated in the presence of the excipients shown in the table. The fluorescence intensity of S-25, Tol3 and Y2150 were determined with a FLUOstar OPTIMA plate reader (BMG LABTECH) at excitation wavelength of 550 nm and emission wavelength of 610 nm; while the fluorescence intensity for Thioflavin-T was determined using a SpectraMAX GeminiXS (Molecular device, with Softmax Pro 7.0) using an excitation wavelength of 435 nm and emission wavelength of 495 nm. The fluorescence enhancement (aggregate/native IgG) is shown.

[2] = target: T1, recombinant human alpha-synuclein (ASN) aggregate (Homo sapiens, UniProt P37840); assay: Fluorescence excitation and emission spectra of dye in the presence of aggregated alpha-synuclein; format: binding; conditions: 1 μM aggregated ASN, 50 mM Tris-HCl, pH 7.8, 10 μM dye
T1 construct: purchased Sigma-Aldrich
Protocol: (§1) Fluorescent readings were carried out in 50 mM Tris-HCl, pH 7.8 using 10 μM dye. […] Fluorescence excitation and emission spectra were collected on a Cary Eclipse fluorescence spectrophotometer (Varian, Australia). Fluorescence spectra were measured with excitation and emission slit widths set to 5 nm, and at a constant PMT voltage. Spectroscopic measurements were performed in standard quartz cells. All measurements were made at the respective excitation maxima of each dye. All measurements were carried out at room temperature.

β-lactoglobulin (BLG) = target: T2, β-lactoglobulin (BLG) (Bos taurus, UniProt P02754); assay: Thermal shift assay of BLG aggregation; format: binding; conditions: BLG 4 or 16 mg/mL, heating 28° C. to 90° C.
T2 sequence (P02754 17-178): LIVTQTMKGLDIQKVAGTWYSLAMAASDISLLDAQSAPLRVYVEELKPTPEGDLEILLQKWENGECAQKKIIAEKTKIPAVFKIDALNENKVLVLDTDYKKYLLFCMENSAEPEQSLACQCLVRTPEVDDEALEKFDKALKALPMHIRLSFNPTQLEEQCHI
Protocol: A solution containing 4 or 16 mg/mL of β-lactoglobulin (BLG) and 2×SYPRO® Orange dye (Molecular Probes, supplied as 5000× with unknown concentration) or 4 μM TOL3 or 4 μM S25 was prepared using 1×PBS, pH 7.4 as the dilution buffer. This solution was then loaded into LightCycler® capillaries (20 μL, Roche Diagnostics GmbH). These capillaries were then mounted on the sample holder of a LightCycler® 480 Real-Time PCR System (Roche), programmed to heat from 28° C. to 90° C. at 3° C./min, followed by cooling down to 28° C. at the same rate. The thermal shift curves were achieved by plotting fluorescence intensity vs. temperature. After the heating cycle, protein aggregates were visually apparent.

[3] = Fluorescence excitation and emission spectra of dye freely dissolved in buffer; format: physicochemical; conditions: 50 mM Tris-HCl, pH 7.8, 10 μM dye, room temperature
Protocol: as §1

Goat anti-mouse IgG = assay: High-throughput protein formulation optimization: effect of excipients on IgG aggregation at 50° C., S-25/Tol3 readout; format: biochemical; conditions: 100 mM Trehalose; 50° C. for 6 hours
Protocol: (A). Goat anti-mouse IgG was diluted in sodium acetate, pH 4.5, then mixed with the excipients shown in FIG. 10 A giving a final concentration of 400 mM sodium acetate, 18 μM IgG and the excipient concentration shown in the Table 2. This mixture was heated to 50° C. for 6 hours. At this time the protein solution was diluted two-fold to give a final concentration of 50 mM Histidine buffer, originally pH 7, 2.5 μM S-25, 2.5 μM Tol3 and 9 μM IgG. After 30 minutes of incubation on the shaker, the fluorescence intensity was recorded on the plate reader (FLUOstar Optima). The fluorescence intensity from each individual excipient was then compared with that without any excipient (Value set as 1.0) as shown on the top of the corresponding excipient bar in FIG. 12 A.
(B). In the control plate, the IgG was added to the plate, at the same volume and concentration given above (Example 17A) in 400 mM Sodium Acetate. This mixture was heated to 50° C. for 6 hours, as described above. After 6 hours, the excipient was added followed by S-25 and Tol3 to give all the final concentrations as shown in Example 17A. Similar to the sample plate, the fluorescence intensity from individual excipients was also compared with that from water without any excipient (Values set as 1.0) to obtain the relative fluorescent intensity as shown on the top of the corresponding excipient bar in FIG. 12B.
(C). […]

## CN(C)c1ccc(/C=C/c2cc[n+](CCCCCC[n+]3ccc(/C=C/c4ccc(N(C)C)cc4)cc3)cc2)cc1.CS(=O)(=O)[O-].CS(=O)(=O)[O-] [Dye S25]
[1]; Ammonium Sulfate, 10 mM
  Fluorescence enhancement (aggregate/native IgG): 15.4 fold
[1]; Ammonium Sulfate, 100 mM
  Fluorescence enhancement (aggregate/native IgG): 14.6 fold
[1]; Ammonium Sulfate, 300 mM
  Fluorescence enhancement (aggregate/native IgG): 13.3 fold
[1]; Arginine, 200 mM
  Fluorescence enhancement (aggregate/native IgG): 14.8 fold
[1]; Arginine, 500 mM
  Fluorescence enhancement (aggregate/native IgG): 13.5 fold
[1]; Ascoric Acid, 1 mM
  Fluorescence enhancement (aggregate/native IgG): 13.9 fold
[1]; Average over all excipient conditions
  Fluorescence enhancement (aggregate/native IgG), Average: 19.3 fold
[1]; Calcium Chloride, 10 mM
  Fluorescence enhancement (aggregate/native IgG): 9.7 fold
[1]; Calcium Chloride, 50 mM
  Fluorescence enhancement (aggregate/native IgG): 9.6 fold
[1]; Calcium Chloride, 200 mM
  Fluorescence enhancement (aggregate/native IgG): 6.7 fold
[1]; DTT, 1 mM
  Fluorescence enhancement (aggregate/native IgG): 13.2 fold
[1]; Glycine, 0.5%
  Fluorescence enhancement (aggregate/native IgG): 14.1 fold
[1]; Glycine, 2%
  Fluorescence enhancement (aggregate/native IgG): 15.1 fold
[1]; Lactose, 100 mM
  Fluorescence enhancement (aggregate/native IgG): 23.0 fold
[1]; Lactose, 300 mM
  Fluorescence enhancement (aggregate/native IgG): 38.9 fold
[1]; Mannitol, 100 mM
  Fluorescence enhancement (aggregate/native IgG): 16.7 fold
[1]; Mannitol, 300 mM
  Fluorescence enhancement (aggregate/native IgG): 15.2 fold
[1]; Mannitol, 600 mM
  Fluorescence enhancement (aggregate/native IgG): 20.9 fold
[1]; Sodium Chloride, 10 mM
  Fluorescence enhancement (aggregate/native IgG): 14.0 fold
[1]; Sodium Chloride, 100 mM
  Fluorescence enhancement (aggregate/native IgG): 13.6 fold
[1]; Sodium Chloride, 1000 mM
  Fluorescence enhancement (aggregate/native IgG): 11.7 fold
[1]; Sorbitol, 100 mM
  Fluorescence enhancement (aggregate/native IgG): 16.4 fold
[1]; Sorbitol, 300 mM
  Fluorescence enhancement (aggregate/native IgG): 21.0 fold
[1]; Sorbitol, 600 mM
  Fluorescence enhancement (aggregate/native IgG): 25.4 fold
[1]; Trehalose, 100 mM
  Fluorescence enhancement (aggregate/native IgG): 17.8 fold
[1]; Trehalose, 300 mM
  Fluorescence enhancement (aggregate/native IgG): 32.1 fold
[1]; Trehalose, 600 mM
  Fluorescence enhancement (aggregate/native IgG): 30.1 fold
[1]; Tween 20, 0.01%
  Fluorescence enhancement (aggregate/native IgG): 70.8 fold
[1]; Tween 20, 0.2%
  Fluorescence enhancement (aggregate/native IgG): 26.7 fold
[1]; X100, 0.01%
  Fluorescence enhancement (aggregate/native IgG): 19.2 fold
[1]; X100, 0.2%
  Fluorescence enhancement (aggregate/native IgG): 7.3 fold
[1]; X100, 1%
  Fluorescence enhancement (aggregate/native IgG): 2.9 fold
[2]
  In the presence of aggregate: Emission wavelength: 607 nm
  In the presence of aggregate: Excitation wavelength: 516 nm
β-lactoglobulin (BLG)
  Detection of BLG thermal shift (melting) peak: able to detect BLG thermal shift peaks
[3]
  Dye freely dissolved in buffer: Emission wavelength: 613 nm
  Dye freely dissolved in buffer: Excitation wavelength: 485 nm

## OC[C@H]1O[C@H](O[C@H]2O[C@H](CO)[C@@H](O)[C@H](O)[C@H]2O)[C@H](O)[C@@H](O)[C@@H]1O [Trehalose]
Goat anti-mouse IgG
  Effect on aggregation of IgG (fluorescence ratio sample plate / control plate): inhibit or slow down aggregation of IgG
